Target: Delta-type opioid receptor (Cavia porcellus)
Experiment: Tested for inhibitory effect on binding of [3H]DPDPE to opioid receptor delta in guinea pig cerebellum membranes

Structure (SMILES) | Ki [nM]
CC[C@H](C)[C@H](NC(=O)[C@H](CCCNC(=N)N)NC(=O)[C@H](CCCNC(=N)N)NC(=O)[C@H](CC(C)C)NC(=O)[C@H](Cc1ccccc1)NC(=O)CNC(=O)CNC(=O)[C@H](Cc1ccc(O)cc1)NCC1CC1)C(=O)N[C@@H](CCCNC(=N)N)C(=O)N1CCC[C@@H]1C(=O)N[C@@H](CCCCN)C(=O)O | 558
C=CCN(CC=C)[C@@H](Cc1ccc(O)cc1)C(=O)NCC(=O)NCC(=O)N[C@@H](Cc1ccccc1)C(=O)N[C@@H](CC(C)C)C(=O)N[C@@H](CCCNC(=N)N)C(=O)N[C@@H](CCCNC(=N)N)C(=O)N[C@H](C(=O)N[C@@H](CCCNC(=N)N)C(=O)N1CCC[C@@H]1C(=O)N[C@@H](CCCCN)C(=O)O)[C@@H](C)CC | 149
